Data on 12 molecules can be found in PubChem BioAssay (NCI).

Test in all cases: DTP human tumour cell line panel, 48 h
The subject of assay [1] is CCRF-CEM leukemia.
Assay [2] deals with SF-539 CNS.
Assay [3] deals with A549 NSCLC.
For assay [4], the system named is HL-60(TB) leukemia.
The subject of assay [5] is UO-31 renal.
The test system of assay [6] is SW-620 colon.
Assay [7] concerns OVCAR-3 ovarian.
Assay [8] has as its system SK-MEL-28 melanoma.
For assay [9], the system named is OVCAR-8 ovarian.
Assay [10] relates to SK-MEL-2 melanoma.
The subject of assay [11] is SN12C renal.

SMILES strings stand for the structures.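 Exposure lasted 48 hours, with cells grown in 96-well plates and compounds tested at five concentrations. GI50 marks 50% less growth. TGI denotes the concentration required for complete inhibition of growth.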

A word on the TGI: it is the concentration at which net growth stops. A low value points to greater sensitivity of the cells. In the case of `CCCOC(=O)CNC(=O)OC(C)(C)C`, the concentration for total growth inhibition (TGI) in [1], in assay [2], in assay [3], in assay [4], in assay [5] and in [6] was more than 100 µM throughout. Moreover, the TGI in [7], in [8], in [9] and in [10] was more than 100 µM in each case.

On to `CCc1nc(N)nc(N)c1-c1ccc([N+](C)(C)C)cc1`, for which the TGI in assay [1], in assay [2], in [3], in assay [4], in [5] and in assay [6] was more than 100 µM throughout. Also, the TGI in [7], in assay [8], in assay [9], in [10] and in assay [11] was more than 100 µM in each case.

`Nc1ccccc1N=Cc1cc2cc([N+](=O)[O-])ccc2s1`: the TGI in assay [1] is 22.8 µM; in [2], 27.4 µM; in assay [3], 30.9 µM; in [4], 32 µM; in [5], 48.8 µM; in [6] it was more than 100 µM. The total growth inhibition concentration (TGI) in assay [7] was 30.1 µM; in assay [8], 57.8 µM; in assay [9], 45.7 µM; in [10], 37.3 µM; in assay [11], more than 100 µM.

For `COC(C)(C)OCCN1CCN(CCN2C3=C(C=C(C(C)=O)C3)Sc3ccccc32)CC1`, the TGI was 32.4 µM in assay [1]; 39.8 µM in assay [2]; 96.7 µM in assay [3]; 35.8 µM in assay [4]; 43.1 µM in assay [5]; 37.2 µM in assay [6]. For the same molecule, the TGI in assay [7] was determined as 45.8 µM; in [8], 32.9 µM; in [9] it was 42.1 µM; in assay [10], 41.4 µM; in assay [11], 69.8 µM.

`CN(C)CCNC(=O)c1cccc2ccc(-c3ccc(F)cc3)nc12`: the total growth inhibition concentration (TGI) in [1] was determined as 15.8 µM; in assay [2], 14.9 µM; in assay [3] it was 17.9 µM; in [4] it was 7.49 µM; in assay [5] it was 11.4 µM; in [6], 21 µM. Moreover, the TGI amounted to 33.5 µM in assay [7]; 20.1 µM in assay [8]; 15.8 µM in [9]; 21.3 µM in assay [10]; 25.2 µM in assay [11].

As usually defined, the GI50 is the concentration giving 50% growth inhibition. With `COc1cc(C2CC(c3cccc(Nc4ccncc4)c3)=NN2c2ccc(Cl)cc2)cc(OC)c1OC` (stereo not drawn), the GI50 in assay [1] was 2.39 µM; in assay [2], 1.64 µM; in [5], 1.15 µM; in assay [6] it was 1.68 µM; in assay [7] it was 1.61 µM; in [8], 1.68 µM. Moreover, the results for the GI50 in assay [10] and in [11] were 1.89 µM and 1.54 µM, respectively. For the same molecule, the total growth inhibition concentration (TGI) in [1] stood at 6.71 µM; in assay [2] it was 3.05 µM; in assay [5], 2.37 µM; in assay [6], 3.19 µM; in [7], 3.03 µM; in assay [8] it was 3.12 µM. Further, the values for the TGI in assay [10] and in assay [11] were 3.91 µM and 2.95 µM, respectively.

With `CN(C)CCCn1cnc2cc(Cl)c(Cl)cc21`, the TGI in [1], in [3], in assay [4], in assay [5], in assay [6] and in assay [7] was more than 100 µM in each case. Further, the TGI was 41.8 µM in assay [8], more than 100 µM in assay [9], more than 100 µM in assay [10] and more than 100 µM in [11].

As to `O=P1(c2ccccc2)Nc2ccccc2SSc2ccccc2N1`, the TGI in assay [1] came out at 62.8 µM; in [2] it was 34.3 µM; in assay [3], 46.1 µM; in [4], 39.6 µM; in assay [5], 27.2 µM; in assay [6], 33.7 µM. Further, the TGI came to 28.3 µM in assay [7]; 34.3 µM in assay [8]; 37.2 µM in [9]; 32.2 µM in assay [10]; 32.8 µM in [11].

`Cc1cc(/N=C/c2ccc(F)cc2)n(-c2ccccc2)n1`: the TGI in assay [1], in [2], in assay [3], in [4], in assay [5] and in assay [6] was more than 100 µM each time. For the same molecule, the total growth inhibition concentration (TGI) in assay [7], in [8], in assay [9], in [10] and in assay [11] was more than 100 µM throughout.

Consider `Cc1cc2c(cc1C(=O)c1ccc(N)cc1)OCO2`, for which the TGI in assay [1] was more than 100 µM; in [2] it was 79.7 µM; in assay [3], more than 100 µM; in assay [4], more than 100 µM; in assay [5], more than 100 µM; in assay [6], more than 100 µM. Besides, the total growth inhibition concentration (TGI) in assay [7] was 0.966 µM; in assay [9], more than 100 µM; in assay [10] it was 74 µM; in assay [11], more than 100 µM.

As for `O=C(Nc1ccc([N+](=O)[O-])cc1[N+](=O)[O-])C(=O)C(C(=O)c1ccc2ccccc2c1)C1OC(=O)c2ccccc21` (stereo not drawn), the concentration for total growth inhibition (TGI) came to 32.4 µM in [1]; 18.6 µM in [2]; 61.7 µM in [3]; 35 µM in [4]; 27.7 µM in assay [5]; 30.9 µM in assay [6]. Also, the TGI in assay [8] is 48 µM; in [9] it was 21.6 µM; in assay [10], 43.4 µM; in assay [11] it was 54.7 µM.

As for `FC(F)(F)c1ccc2c(c1)nc(-c1ccc(Cl)cc1)n2CC1CCCN2CCCCC12` (stereo not drawn), the concentration for total growth inhibition (TGI) in assay [1] was found to be 36 µM; in assay [2], 28.8 µM; in [3], 29.5 µM; in assay [4], 29.2 µM; in assay [5], 22.9 µM; in [6], 38.1 µM. For the same molecule, the TGI in assay [7] was 33.6 µM; in assay [8] it was 30.8 µM; in assay [9], 30.1 µM; in assay [10], 30.2 µM; in assay [11], 26 µM.
